Patent publication US10710992B2, “Substituted pyridinones as bromodomain inhibitors” (Zenith Epigenetics Ltd., priority 2014, dated 2020)

Experiments:
Human AML MV-4-11 cells = test: Inhibition of cell proliferation in cancer cell lines (CellTiter Aqueous One); assay type: cell-based; conditions: Homo sapiens; MV4-11 cells, 72 h
Experimental: MV4-11 cells (CRL-9591) were plated at a density of 5×10^4 cells per well in 96 well flat bottom plates and treated with increasing concentrations of test compound or DMSO (0.1%) in IMDM media containing 10% FBS and penicillin/streptomycin. Triplicate wells were used for each concentration and a well containing only media was used as a control. Plates were incubated at 37° C., 5% CO2 for 72 h before adding 20 μL of the CellTiter Aqueous One Solution (Promega) to each well and incubated at 37° C., 5% CO2 for an additional 3-4 h. The absorbance was read at 490 nm in a spectrophotometer and the percentage of cell titer relative to DMSO-treated cells was calculated after correcting for background by subtracting the blank well's signal. IC50 values were calculated using the GraphPad Prism software.

[1] = test system: c-myc in Human AML MV4-11 cells; test: Inhibition of cMYC expression in cancer cell lines (mRNA, real-time PCR); assay type: cell-based; conditions: 3 h, cMYC mRNA normalized to Cyclophilin; for IC50: Homo sapiens
Experimental: MV4-11 cells (CRL-9591) were plated at a density of 2.5×10^4 cells per well in 96 well U-bottom plates and treated with increasing concentrations of test compound or DMSO (0.1%) in IMDM media containing 10% FBS and penicillin/streptomycin, and incubated for 3 h at 37° C. Triplicate wells were used for each concentration. Cells were pelleted by centrifugation and harvested using the mRNA Catcher PLUS kit according to manufacturer's instructions. The eluted mRNA isolated was then used in a one-step quantitative real-time PCR reaction, using components of the RNA UltraSense™ One-Step Kit (Life Technologies) together with Applied Biosystems TaqMan® primer-probes for cMYC and Cyclophilin. Real-time PCR plates were run on a ViiA™ 7 real time PCR machine (Applied Biosystems), data was analyzed, normalizing the Ct values for cMYC to an internal control, prior to determining the fold expression of each sample, relative to the control.

[2] = biological target: T1, Brd4 bromodomain 1 (BRD4(1)) (Homo sapiens, UniProt O60885); test: Inhibition of tetra-acetylated histone H4 binding to BET bromodomain (HTRF/FRET); conditions: His-tagged bromodomain 200 nM, tetra-acetylated histone H4 peptide, 2 h room temperature
T1 construct: made in house; host or cells: E. coli BL21(DE3)
Experimental: Proteins were cloned and overexpressed with a N-terminal 6× His tag, then purified by nickel affinity followed by size exclusion chromatography. Briefly, E. coli BL21(DE3) cells were transformed with a recombinant expression vector encoding N-terminally Nickel affinity tagged bromodomains from Brd2, Brd3, Brd4. Cell cultures were incubated at 37° C. with shaking to the appropriate density and induced overnight with IPTG. The supernatant of lysed cells was loaded onto Ni-IDA column for purification. Eluted protein was pooled, concentrated and further purified by size exclusion chromatography. Fractions representing monomeric protein were pooled, concentrated, aliquoted, and frozen at −80° C. for use in subsequent experiments.
Binding of tetra-acetylated histone H4 and BET bromodomains was confirmed by a Homogenous Time Resolved Fluorescence Resonance Energy Transfer (HTRF®) method. N-terminally His-tagged bromodomains (200 nM) and biotinylated tetra-acetylated historic H4 peptide (25-50 nM, Millipore) were incubated in the presence of Europium Cryptate-labeled streptavidin (Cisbio Cat. #610SAKLB) and XL665-labeled monoclonal anti-His antibody (Cisbio Cat. #61HISXLB) in a white 96 well microtiter plate (Greiner). For inhibition assays, serially diluted test compound was added to these reactions in a 0.2% final concentration of DMSO. Duplicate wells were used for each concentration tested. Final buffer concentrations were 30 mM HEPES pH 7.4, 30 mM NaCl, 0.3 mM CHAPS, 20 mM phosphate pH 7.0, 320 mM KF, 0.08% BSA. After a 2 h incubation at room temperature, fluorescence was measured at 665 and 620 nm with a SynergyH4 plate reader (Biotek). The binding inhibitory activity was shown by a decrease in 665 nm relative to […] fluorescence. IC50 values were determined from a dose response curve.

hIL-6 mRNA = test: Inhibition of hIL-6 mRNA transcription in LPS-stimulated U937 cells; assay type: cell-based; conditions: Homo sapiens, U-937; PMA-differentiated U937 cells, 1 h pretreatment, LPS 1 ug/mL, 3 h; read-out: IL-6 activity
Experimental: Human leukemic monocyte lymphoma U937 cells (CRL-1593.2) were plated at a density of 3.2×10^4 cells per well in a 96-well plate in 100 μL RPMI-1640 containing 10% FBS and penicillin/streptomycin, and differentiated into macrophages for 3 days in 60 ng/mL PMA ([…]) at 37° C. in 5% CO2 prior to the addition of compound. The cells were pretreated for 1 h with increasing concentrations of test compound in 0.1% DMSO prior to stimulation with 1 ug/mL lipopolysaccharide from Escherichia coli. Triplicate wells were used for each concentration. The cells were incubated at 37° C., 5% CO2 for 3 h before the cells were harvested. At time of harvest, media was removed and cells were rinsed in 200 μL PBS. Cells were harvested using the mRNA Catcher PLUS kit according to manufacturer's instructions. The eluted mRNA was then used in a one-step quantitative real-time PCR reaction using components of the RNA UltraSense™ One-Step Kit (Life Technologies) together with Applied Biosystems TaqMan® primer-probes for hIL-6 and Cyclophilin. Real-time PCR plates were run on a ViiA™ 7 real time PCR machine (Applied Biosystems), data was analyzed, normalizing the Ct values for hIL-6 to an internal control, prior to determining the fold expression of each sample, relative to the control.

Cc1noc(C)c1-c1c[nH]c(=O)c(N[C@@H](C)c2ccccn2)c1 (single isomer, unassigned) [Example 41]
IC50 (Human AML MV-4-11 cells): 3000 to 30000 nM
IC50 [1]: 3000 to 30000 nM
IC50 [2]: ≤ 300 nM
IC50 (hIL-6 mRNA): 300 to 3000 nM

Cc1noc(C)c1-c1c[nH]c(=O)c(N[C@H](C)c2ccccn2)c1 (single isomer, unassigned) [Example 42]
IC50 (Human AML MV-4-11 cells): 300 to 3000 nM
c-myc activity [1]: Not Active
IC50 [2]: ≤ 300 nM
IC50 (hIL-6 mRNA): 300 to 3000 nM

Cc1noc(C)c1-c1c[nH]c(=O)c(Nc2cccc(F)c2)c1 [Example 3, 5-(3,5-dimethylisoxazol-4-yl)-3-((3-fluorophenyl)amino)pyridin-2(1H)-one]
IC50 (Human AML MV-4-11 cells): 3000 to 30000 nM
IC50 [1]: 300 to 3000 nM
IC50 [2]: 300 to 3000 nM
IC50 (hIL-6 mRNA): 300 to 3000 nM

Cc1noc(C)c1-c1c[nH]c(=O)c(Oc2ccccc2)c1 [Example 5, 5-(3,5-dimethylisoxazol-4-yl)-3-phenoxypyridin-2(1H)-one]
IC50 [2]: 300 to 3000 nM

Cc1cccc(Nc2cc(-c3c(C)noc3C)c[nH]c2=O)c1 [Example 6, 5-(3,5-dimethylisoxazol-4-yl)-3-(m-tolylamino)pyridin-2(1H)-one]
IC50 (Human AML MV-4-11 cells): 300 to 3000 nM
IC50 [2]: ≤ 300 nM
IC50 (hIL-6 mRNA): 300 to 3000 nM

COc1cccc(Nc2cc(-c3c(C)noc3C)c[nH]c2=O)c1 [Example 7, 5-(3,5-dimethylisoxazol-4-yl)-3-((3-methoxyphenyl)amino)pyridin-2(1H)-one]
IC50 (Human AML MV-4-11 cells): 3000 to 30000 nM
IC50 [2]: 300 to 3000 nM

Cc1noc(C)c1-c1c[nH]c(=O)c(NCc2ccc(Cl)cc2)c1 [Example 8, 3-((4-chlorobenzyl)amino)-5-(3,5-dimethylisoxazol-4-yl)pyridin-2(1H)-one]
IC50 (Human AML MV-4-11 cells): 3000 to 30000 nM
IC50 [1]: 3000 to 30000 nM
IC50 [2]: ≤ 300 nM
IC50 (hIL-6 mRNA): 300 to 3000 nM

Cc1noc(C)c1-c1c[nH]c(=O)c(NCc2ccc(C#N)cc2)c1 [Example 9, 4-(((5-(3,5-dimethylisoxazol-4-yl)-2-oxo-1,2-dihydropyridin-3-yl)amino)methyl)benzonitrile]
IC50 (Human AML MV-4-11 cells): 3000 to 30000 nM
IC50 [1]: 300 to 3000 nM
IC50 [2]: ≤ 300 nM
IC50 (hIL-6 mRNA): 300 to 3000 nM

Cc1noc(C)c1-c1c[nH]c(=O)c(NCc2ccc(C(F)(F)F)cc2)c1 [Example 10, 5-(3,5-dimethylisoxazol-4-yl)-3-((4-(trifluoromethyl)benzyl)amino)pyridin-2(1H)-one]
IC50 (Human AML MV-4-11 cells): 3000 to 30000 nM
IC50 [1]: 3000 to 30000 nM
IC50 [2]: 300 to 3000 nM
IC50 (hIL-6 mRNA): 300 to 3000 nM

Cc1noc(C)c1-c1c[nH]c(=O)c(NCc2ccncc2)c1 [Example 11, 5-(3,5-dimethylisoxazol-4-yl)-3-((pyridin-4-ylmethyl)amino)pyridin-2(1H)-one]
IC50 (Human AML MV-4-11 cells): 3000 to 30000 nM
IC50 [1]: 3000 to 30000 nM
IC50 [2]: 300 to 3000 nM
IC50 (hIL-6 mRNA): 300 to 3000 nM

Cc1noc(C)c1-c1c[nH]c(=O)c(NCc2ccc(Cl)s2)c1 [Example 12, 3-(((5-chlorothiophen-2-yl)methyl)amino)-5-(3,5-dimethylisoxazol-4-yl)pyridin-2(1H)-one]
IC50 (Human AML MV-4-11 cells): 300 to 3000 nM
IC50 [2]: ≤ 300 nM
IC50 (hIL-6 mRNA): 300 to 3000 nM

Cc1noc(C)c1-c1c[nH]c(=O)c(NCc2ccsc2)c1 [Example 13, 5-(3,5-dimethylisoxazol-4-yl)-3-((thiophen-3-ylmethyl)amino)pyridin-2(1H)-one]
IC50 (Human AML MV-4-11 cells): 300 to 3000 nM
IC50 [1]: 300 to 3000 nM
IC50 [2]: ≤ 300 nM
IC50 (hIL-6 mRNA): 300 to 3000 nM

Cc1noc(C)c1-c1c[nH]c(=O)c(Nc2ccccc2F)c1 [Example 15, 5-(3,5-dimethylisoxazol-4-yl)-3-((2-fluorophenyl)amino)pyridin-2(1H)-one]
IC50 [2]: 300 to 3000 nM

Cc1noc(C)c1-c1c[nH]c(=O)c(Nc2ccc(F)cc2)c1 [Example 16, 5-(3,5-dimethylisoxazol-4-yl)-3-((4-fluorophenyl)amino)pyridin-2(1H)-one]
IC50 [2]: 300 to 3000 nM

Cc1noc(C)c1-c1c[nH]c(=O)c(NC(C)c2ccc(Cl)cc2)c1 (centres unmarked) [Example 18, 3-((1-(4-chlorophenyl)ethyl)amino)-5-(3,5-dimethylisoxazol-4-yl)pyridin-2(1H)-one]
IC50 (Human AML MV-4-11 cells): 3000 to 30000 nM
IC50 [1]: 300 to 3000 nM
IC50 [2]: 300 to 3000 nM

Cc1noc(C)c1-c1c[nH]c(=O)c(NCc2ccc(Br)cc2)c1 [Example 19, 3-((4-bromobenzyl)amino)-5-(3,5-dimethylisoxazol-4-yl)pyridin-2(1H)-one]
IC50 (Human AML MV-4-11 cells): 3000 to 30000 nM
IC50 [1]: 3000 to 30000 nM
IC50 [2]: 300 to 3000 nM

Cc1noc(C)c1-c1c[nH]c(=O)c(NCCc2ccccc2)c1 [Example 22, 5-(3,5-dimethylisoxazol-4-yl)-3-(phenethylamino)pyridin-2(1H)-one]
IC50 [2]: 300 to 3000 nM

Cc1noc(C)c1-c1c[nH]c(=O)c(NCc2cccnc2)c1 [Example 23, 5-(3,5-dimethylisoxazol-4-yl)-3-((pyridin-3-ylmethyl)amino)pyridin-2(1H)-one]
IC50 [1]: 300 to 3000 nM
IC50 [2]: ≤ 300 nM
IC50 (hIL-6 mRNA): 300 to 3000 nM

Cc1noc(C)c1-c1c[nH]c(=O)c(OCc2ccc(C#N)cc2)c1 [Example 25, 4-(((5-(3,5-dimethylisoxazol-4-yl)-2-oxo-1,2-dihydropyridin-3-yl)oxy)methyl)benzonitrile]
IC50 [2]: 300 to 3000 nM

Cc1noc(C)c1-c1c[nH]c(=O)c(OCc2ccccn2)c1 [Example 26, 5-(3,5-dimethylisoxazol-4-yl)-3-(pyridin-2-ylmethoxy)pyridin-2(1H)-one]
IC50 [2]: 300 to 3000 nM

Cc1noc(C)c1-c1c[nH]c(=O)c(Nc2ccc(C#N)cc2)c1 [Example 28, 4-((5-(3,5-dimethylisoxazol-4-yl)-2-oxo-1,2-dihydropyridin-3-yl)amino)benzonitrile]
IC50 [2]: 300 to 3000 nM

Cc1noc(C)c1-c1c[nH]c(=O)c(Nc2ccc(Cl)cc2)c1 [Example 29, 3-((4-chlorophenyl)amino)-5-(3,5-dimethylisoxazol-4-yl)pyridin-2(1H)-one]
IC50 (Human AML MV-4-11 cells): 3000 to 30000 nM
IC50 [1]: 3000 to 30000 nM
IC50 [2]: 300 to 3000 nM

Cc1noc(C)c1-c1c[nH]c(=O)c(NCc2cnoc2)c1 [Example 31, 5-(3,5-dimethylisoxazol-4-yl)-3-((isoxazol-4-ylmethyl)amino)pyridin-2(1H)-one]
IC50 [2]: 300 to 3000 nM

Cc1noc(C)c1-c1c[nH]c(=O)c(-c2c(C)noc2C)c1 [Example 32, 3,5-bis(3,5-dimethylisoxazol-4-yl)pyridin-2(1H)-one]
IC50 [2]: 3000 to 30000 nM

Cc1noc(C)c1-c1c[nH]c(=O)c(NCc2nc3ccccc3[nH]2)c1 [Example 38, 3-(((1H-benzo[d]imidazol-2-yl)methyl)amino)-5-(3,5-dimethylisoxazol-4-yl)pyridin-2(1H)-one]
IC50 [2]: 300 to 3000 nM
